The results in this text go back to ChEMBL document CHEMBL5053536, “Discovery of Quinazoline-2,4(1H,3H)-dione Derivatives Containing 3-Substituted Piperizines as Potent PARP-1/2 Inhibitors─Design, Synthesis, In Vivo Antitumor Activity, and X-ray Crystal Structure Analysis” (J Med Chem, 2021).

The test system of this test is U-251. The test can be described thus: Inhibition of PARP1/2-mediated DNA repair in human U-251 cells assessed as reduction in PAR formation at 1 to 10 uM after 24 hrs in absence of TMZ by Western blot analysis. In kind it is cell-based. The conditions noted are these: dose 1-10 µM. Background: In western blotting, separated proteins are transferred to a membrane and probed.

The structures appear in SMILES notation. Active and inactive are the calls of the source. The calls are words filed in the database; no cut-off is given here.

Turning to `CC[C@@H]1CN(C(=O)c2cc(Cn3c(=O)[nH]c(=O)c4ccccc43)ccc2F)CCN1CC`, the inhibition entry is “Active”.
